PubChem BioAssay AID1963833 (Molecular Pharmacology Branch, DTP, NCI, 2024)

System: 883617-216-R-J1-PDC complex spheroid viability
Test: Anticancer human tumor 883617-216-R-J1-PDC patient-derived bladder carcinoma cell line growth inhibition [POLQ]
Conditions: for IC50: curve of first compound; for viability, T/C: stronger effect = lower value
In short: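 Three-cell-type spheroids modelling solid tumor plus stroma served as the readout system; POL inhibitors were tested individually and in combination, concentration ranges set by clinical Cmax where known.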

[1] = second compound 0.0316 µM, first compound 0.00316 µM
[2] = second compound 0.0316 µM, first compound 0.01 µM
[3] = second compound 0.0316 µM, first compound 0.0316 µM
[4] = second compound 0.0316 µM, first compound 0.1 µM
[5] = second compound 0.0316 µM, first compound 0.316 µM
[6] = second compound 0.0316 µM, first compound 1 µM
[7] = second compound 0.1 µM, first compound 0.00316 µM
[8] = second compound 0.1 µM, first compound 0.01 µM
[9] = second compound 0.1 µM, first compound 0.0316 µM
[10] = second compound 0.1 µM, first compound 0.1 µM
[11] = second compound 0.1 µM, first compound 0.316 µM
[12] = second compound 0.1 µM, first compound 1 µM
[13] = second compound 0.316 µM, first compound 0.00316 µM
[14] = second compound 0.316 µM, first compound 0.01 µM
[15] = second compound 0.316 µM, first compound 0.0316 µM
[16] = second compound 0.316 µM, first compound 0.1 µM
[17] = second compound 0.316 µM, first compound 0.316 µM
[18] = second compound 0.316 µM, first compound 1 µM
[19] = second compound 1 µM, first compound 0.00316 µM
[20] = second compound 1 µM, first compound 0.01 µM
[21] = second compound 1 µM, first compound 0.0316 µM
[22] = second compound 1 µM, first compound 0.1 µM
[23] = second compound 1 µM, first compound 0.316 µM
[24] = second compound 1 µM, first compound 1 µM
[25] = second compound 3.16 µM, first compound 0.00316 µM
[26] = second compound 3.16 µM, first compound 0.01 µM
[27] = second compound 3.16 µM, first compound 0.0316 µM
[28] = second compound 3.16 µM, first compound 0.1 µM
[29] = second compound 3.16 µM, first compound 0.316 µM
[30] = second compound 3.16 µM, first compound 1 µM
[31] = second compound 10 µM, first compound 0.00316 µM
[32] = second compound 10 µM, first compound 0.01 µM
[33] = second compound 10 µM, first compound 0.0316 µM
[34] = second compound 10 µM, first compound 0.1 µM
[35] = second compound 10 µM, first compound 0.316 µM
[36] = second compound 10 µM, first compound 1 µM
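Further: spheroids exposed to compounds for seven days before readout.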
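Wherever viability, T/C is given: 100% = DMSO vehicle control viability.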

C=CCn1c(=O)c2cnc(Nc3ccc(N4CCN(C)CC4)cc3)nc2n1-c1cccc(C(C)(C)O)n1 + Cc1cccc(N(C)C(=O)C2C(O)CCN2c2nc(C)cc(C(F)(F)F)c2C#N)c1
IC50 (second compound 0.0316 µM): 0.938 µM
IC50 (second compound 0.1 µM): > 1 µM
IC50 (second compound 0.316 µM): 0.896 µM
IC50 (second compound 1 µM): > 1 µM
IC50 (second compound 3.16 µM): > 1 µM
IC50 (second compound 10 µM): > 1 µM
viability, T/C [1]: 106%
viability, T/C [2]: 101%
viability, T/C [3]: 96.7%
viability, T/C [4]: 86.6%
viability, T/C [5]: 92.7%
viability, T/C [6]: 47.1%
viability, T/C [7]: 93.5%
viability, T/C [8]: 93.3%
viability, T/C [9]: 95.4%
viability, T/C [10]: 109%
viability, T/C [11]: 86.2%
viability, T/C [12]: 53%
viability, T/C [13]: 88.2%
viability, T/C [14]: 99.3%
viability, T/C [15]: 102%
viability, T/C [16]: 98.8%
viability, T/C [17]: 90.8%
viability, T/C [18]: 45.5%
viability, T/C [19]: 97.7%
viability, T/C [20]: 99%
viability, T/C [21]: 108%
viability, T/C [22]: 112%
viability, T/C [23]: 81.9%
viability, T/C [24]: 53.2%
viability, T/C [25]: 104%
viability, T/C [26]: 108%
viability, T/C [27]: 97.6%
viability, T/C [28]: 93.6%
viability, T/C [29]: 100%
viability, T/C [30]: 53.4%
viability, T/C [31]: 102%
viability, T/C [32]: 108%
viability, T/C [33]: 119%
viability, T/C [34]: 99%
viability, T/C [35]: 107%
viability, T/C [36]: 54.3%

CC[C@@]1(O)C(=O)OCc2c1cc1n(c2=O)Cc2cc3c(CN(C)C)c(O)ccc3nc2-1 + Cc1cccc(N(C)C(=O)C2C(O)CCN2c2nc(C)cc(C(F)(F)F)c2C#N)c1
IC50 (second compound 0.0316 µM): > 0.1 µM
IC50 (second compound 0.1 µM): > 0.1 µM
IC50 (second compound 0.316 µM): > 0.1 µM
IC50 (second compound 1 µM): > 0.1 µM
IC50 (second compound 3.16 µM): > 0.1 µM
IC50 (second compound 10 µM): > 0.1 µM
viability, T/C (second compound 0.0316 µM, first compound 0.000316 µM): 96.3%
viability, T/C (second compound 0.0316 µM, first compound 0.001 µM): 85.8%
viability, T/C [1]: 96.1%
viability, T/C [2]: 79.3%
viability, T/C [3]: 57.5%
viability, T/C [4]: 54.1%
viability, T/C (second compound 0.1 µM, first compound 0.000316 µM): 101%
viability, T/C (second compound 0.1 µM, first compound 0.001 µM): 93.3%
viability, T/C [7]: 83.7%
viability, T/C [8]: 81.5%
viability, T/C [9]: 58%
viability, T/C [10]: 61.4%
viability, T/C (second compound 0.316 µM, first compound 0.000316 µM): 102%
viability, T/C (second compound 0.316 µM, first compound 0.001 µM): 106%
viability, T/C [13]: 87.6%
viability, T/C [14]: 68.7%
viability, T/C [15]: 64.6%
viability, T/C [16]: 64.4%
viability, T/C (second compound 1 µM, first compound 0.000316 µM): 99.5%
viability, T/C (second compound 1 µM, first compound 0.001 µM): 113%
viability, T/C [19]: 97.1%
viability, T/C [20]: 83.1%
viability, T/C [21]: 63.8%
viability, T/C [22]: 62.8%
viability, T/C (second compound 3.16 µM, first compound 0.000316 µM): 100%
viability, T/C (second compound 3.16 µM, first compound 0.001 µM): 103%
viability, T/C [25]: 98%
viability, T/C [26]: 88.4%
viability, T/C [27]: 66.9%
viability, T/C [28]: 61.8%
viability, T/C (second compound 10 µM, first compound 0.000316 µM): 112%
viability, T/C (second compound 10 µM, first compound 0.001 µM): 94.6%
viability, T/C [31]: 105%
viability, T/C [32]: 79.5%
viability, T/C [33]: 67.7%
viability, T/C [34]: 71%

CCc1c2c(nc3ccc(O)cc13)-c1cc3c(c(=O)n1C2)COC(=O)[C@]3(O)CC + Cc1cccc(N(C)C(=O)C2C(O)CCN2c2nc(C)cc(C(F)(F)F)c2C#N)c1
IC50 (second compound 0.0316 µM): 0.101 µM
IC50 (second compound 0.1 µM): 0.0694 µM
IC50 (second compound 0.316 µM): 0.0847 µM
IC50 (second compound 1 µM): 0.0627 µM
IC50 (second compound 3.16 µM): 0.0599 µM
IC50 (second compound 10 µM): 0.125 µM
viability, T/C [1]: 59.4%
viability, T/C [2]: 58.6%
viability, T/C [3]: 52.8%
viability, T/C [4]: 52%
viability, T/C [5]: 34.2%
viability, T/C [6]: 21.2%
viability, T/C [7]: 71.4%
viability, T/C [8]: 60.8%
viability, T/C [9]: 57.9%
viability, T/C [10]: 46.9%
viability, T/C [11]: 37.7%
viability, T/C [12]: 25%
viability, T/C [13]: 60.1%
viability, T/C [14]: 66.2%
viability, T/C [15]: 55%
viability, T/C [16]: 49.6%
viability, T/C [17]: 32.6%
viability, T/C [18]: 17.6%
viability, T/C [19]: 65.1%
viability, T/C [20]: 61.7%
viability, T/C [21]: 60.8%
viability, T/C [22]: 41.3%
viability, T/C [23]: 33.6%
viability, T/C [24]: 20.5%
viability, T/C [25]: 71.6%
viability, T/C [26]: 59.7%
viability, T/C [27]: 54.8%
viability, T/C [28]: 45.3%
viability, T/C [29]: 40.6%
viability, T/C [30]: 22.4%
viability, T/C [31]: 79.8%
viability, T/C [32]: 70.5%
viability, T/C [33]: 62.1%
viability, T/C [34]: 49.1%
viability, T/C [35]: 44.9%
viability, T/C [36]: 13.5%

O=C(c1cc(Cc2n[nH]c(=O)c3ccccc23)ccc1F)N1CCN(C(=O)C2CC2)CC1 + Cc1cccc(N(C)C(=O)C2C(O)CCN2c2nc(C)cc(C(F)(F)F)c2C#N)c1
IC50 (second compound 0.0316 µM): > 10 µM
IC50 (second compound 0.1 µM): > 10 µM
IC50 (second compound 0.316 µM): > 10 µM
IC50 (second compound 1 µM): > 10 µM
IC50 (second compound 3.16 µM): > 10 µM
IC50 (second compound 10 µM): > 10 µM
viability, T/C [3]: 111%
viability, T/C [4]: 89.4%
viability, T/C [5]: 82.2%
viability, T/C [6]: 94.9%
viability, T/C (second compound 0.0316 µM, first compound 3.16 µM): 79.3%
viability, T/C (second compound 0.0316 µM, first compound 10 µM): 64.6%
viability, T/C [9]: 111%
viability, T/C [10]: 94%
viability, T/C [11]: 91%
viability, T/C [12]: 90.2%
viability, T/C (second compound 0.1 µM, first compound 3.16 µM): 80.3%
viability, T/C (second compound 0.1 µM, first compound 10 µM): 66.7%
viability, T/C [15]: 112%
viability, T/C [16]: 90.3%
viability, T/C [17]: 89.8%
viability, T/C [18]: 93.1%
viability, T/C (second compound 0.316 µM, first compound 3.16 µM): 82.6%
viability, T/C (second compound 0.316 µM, first compound 10 µM): 70.4%
viability, T/C [21]: 98.7%
viability, T/C [22]: 94.1%
viability, T/C [23]: 90.9%
viability, T/C [24]: 90.5%
viability, T/C (second compound 1 µM, first compound 3.16 µM): 92%
viability, T/C (second compound 1 µM, first compound 10 µM): 66.4%
viability, T/C [27]: 93.3%
viability, T/C [28]: 94.6%
viability, T/C [29]: 90.5%
viability, T/C [30]: 78.3%
viability, T/C (second compound 3.16 µM, first compound 3.16 µM): 87.3%
viability, T/C (second compound 3.16 µM, first compound 10 µM): 71.6%
viability, T/C [33]: 114%
viability, T/C [34]: 107%
viability, T/C [35]: 120%
viability, T/C [36]: 99.9%
viability, T/C (second compound 10 µM, first compound 3.16 µM): 95%
viability, T/C (second compound 10 µM, first compound 10 µM): 77.5%
